Results published in patent US9393316B2, “Cancer targeting peptides for enhancing anti-cancer drug delivery and therapeutic efficiencies” (priority 2014, dated 2016).
Where no end group is shown, it is not given here.

Columns and labels:
colorectal cancer = assay: Cytotoxicity of several anticancer drugs; format: cell-based; conditions: compared with other colon and rectal cancer drugs approved by the FDA
HCT116 xenografts [1] = assay: In vivo peptide competitive inhibition of phage tumor homing; set-up: species or system mice; conditions: co-injected with corresponding phage clone
Protocol: (§1) Non-obese diabetic-severe combined immunodeficiency (NOD/SCID) mice were injected subcutaneously (s.c.) into the dorsolateral flank with 5×10^6 HCT116 cells. When the xenograft tumor size reached 300±50 mm^3, the mice were injected intravascularly (i.v.) with 2×10^11 pfu of the targeting phage or control phage M13KO7. Seven min after injection, the mice were sacrificed and perfused through the heart with 50 mL of PBS to wash unbound phages. After perfusion, xenograft tumor and mouse organs were taken out, washed three times with cold PBS, and cut into pans, with some of them homogenized. The phages bound to each tissue sample were recovered by log-phase Escherichia coli ER2738 culture and were titered on LB/IPTG/X-Gal agar plates. In peptide competitive inhibition experiments, 2×10^9 pfu of phage was co-injected with 100 μg of corresponding peptide or an unrelated control peptide.
The tumor-homing ability of HCT63, HCT69 and HCT74 phages were further confirmed by peptide competitive inhibition experiment. Mice bearing HCT116 xenografts were co-injected with HCT63, HCT69 and HCT74 phages clones and the homologous cognate synthetic peptide; pHCT63, pHCT69 and pHCT74 peptides (SEQ ID NOs: 1-3, respectively), respectively.

HUVAC = assay: Cellular ELISA of phage clones; format: binding, human
Protocol: (§2) The selected phages were further identified by ELISA screening. 1×10^4 cells were seeded into each well of 96-well ELISA plates (Falcon, Calif., USA) overnight and were fixed with 2% paraformaldehyde or methanol/acetone (1:1) for 10 min at RT. The plates were washed twice with PBS and were blocked with 1% BSA in PBS (w/v) for 30 min at RT. Then individual phage clones were added and incubated for 1 hr at RT. Following washing three times with PBS, the plates were incubated with horseradish peroxidase (HRP)-conjugated mouse anti-M13 phage antibody (GE Healthcare) at 1:2000 dilution for 1 hr at RT. The plates were washed three times with PBS again, and were subsequently incubated with the peroxidase substrate o-phenylenediamine dihydrochloride (OPD; Sigma) plus H2O2. The reaction was terminated by 3 N HCl, and the absorbance was measured using microplate reader (Model 680, BioRad) at 490 nm. To evaluate the binding activities of the three selected phage clones to various human cancer cell lines, cellular ELISA was performed to detect sixteen types of human cancer cell lines, including A498, HTB-10, B16-F10, SKOV3, PC-3, U2OS, 1112SK, […], SAS, H460, MIA Paca-2, HCT116, HUVAC, CL1-5, Mahlavu, and MDA-MB-231.

A498 = assay: Cellular ELISA of phage clones; format: binding, human
Protocol: as §2

MIA Paca-2 = assay: Cellular ELISA of phage clones; format: binding, human
Protocol: as §2

U2OS = assay: Cellular ELISA of phage clones; format: binding, human
Protocol: as §2

CL1-5 = assay: Cellular ELISA of phage clones; format: binding, human
Protocol: as §2

H460 = assay: Cellular ELISA of phage clones; format: binding, human
Protocol: as §2

Mahlavu = assay: Cellular ELISA of phage clones; format: binding, human
Protocol: as §2

MDA-MB-231 = assay: Cellular ELISA of phage clones; format: binding, human
Protocol: as §2

SAS = assay: Cellular ELISA of phage clones; format: binding, human
Protocol: as §2

PC-3 = assay: Cellular ELISA of phage clones; format: binding, human
Protocol: as §2

1112SK = assay: Cellular ELISA of phage clones; format: binding, human
Protocol: as §2

H184 = assay: Cellular ELISA of phage clones; format: binding, human
Protocol: as §2

SKOV3 = assay: Cellular ELISA of phage clones; format: binding, human
Protocol: as §2

HCT116 xenografts [2] = assay: In vivo tumor homing, phage titer in tumor and organs; set-up: species or system mice; conditions: 2×10^11 pfu i.v., PBS perfusion; vs brain, lungs, heart
Protocol: as §1
To investigate the targeting ability of the selected phage clones in vivo, mice bearing HCT116 xenografts (300 mm^3) were injected with 2×10^11 pfu of either the selected phages or control phage through the tail vein. Phages were circulated and then were perfused with PBS buffer to wash out non-specific binders in circulation. After perfusion, we recovered and determined the […] of phage in tumor masses and normal organs.

HCT116 cells [3] = assay: ELISA screening of phage clones on HCT116 cells (cellular ELISA); format: binding, human; conditions: HCT116, cell line panel
Protocol: The selected phages were further identified by ELISA screening. 1×10^4 cells were seeded into each well of 96-well ELISA plates (Falcon, Calif., USA) overnight and were fixed with 2% paraformaldehyde or methanol/acetone (1:1) for 10 min at RT. The plates were washed twice with PBS and were blocked with 1% BSA in PBS (w/v) for 30 min at RT. Then individual phage clones were added and incubated for 1 hr at RT. Following washing three times with PBS, the plates were incubated with horseradish peroxidase (HRP)-conjugated mouse anti-M13 phage antibody (GE Healthcare) at 1:2000 dilution for 1 hr at RT. The plates were washed three times with PBS again, and were subsequently incubated with the peroxidase substrate o-phenylenediamine dihydrochloride (OPD; Sigma) plus H2O2. The reaction was terminated by 3 N HCl, and the absorbance was measured using microplate reader (Model 680, BioRad) at 490 nm.

[4] = test system: peripheral blood mononuclear cells (PBMC); assay: Flow cytometry binding of phage clones to normal cells; conditions: human PBMC
Protocol: (§3) Cells were grown to 70-80% confluence and were harvested with 10 mM EDTA in PBS. Peripheral blood mononuclear cells were prepared by using Ficoll-Paque Plus density gradient separation. After washing and suspending the cells with FACS buffer (PBS containing 1% fetal bovine serum), the cells were incubated for 1 hr at 4° C. with 5×10^9, 1×10^9 cfu individual phage clones or control phage, respectively. After washing twice with FACS buffer, cells were incubated with mouse anti-M13 monoclonal antibody (GE Healthcare) at 1:2000 dilution for 1 hr followed by 30 min with phycoerythrin (PE)-conjugated goat anti-mouse secondary antibody (Jackson ImmunoResearch) at 1:250 dilution at 4° C. The emission fluorescence signals were measured using FACSCantoll (Becton Dickinson) and were analyzed by FlowJo software.

B16-F10 = assay: Cellular ELISA of phage clones; format: binding, mouse
Protocol: as §2

HT29 = assay: Flow cytometry surface binding of phage clones; set-up: species or system human
Protocol: as §3

HCT116 cells [5] = assay: Flow cytometry surface binding of phage clones; set-up: species or system human
Protocol: as §3

LS174T = assay: Flow cytometry surface binding of phage clones; set-up: species or system human
Protocol: as §3

SW620 = assay: Flow cytometry surface binding of phage clones; set-up: species or system human
Protocol: as §3

COLO205 = assay: Flow cytometry surface binding of phage clones; set-up: species or system human
Protocol: as §3

HCT116 xenografts [6] = assay: Immunohistochemical localization of phages in xenograft tumor and organs; format: in vivo, mice; conditions: tumor vs brain, heart, lungs, colon
Protocol: The tissue samples from in vivo phage homing experiment were embedded in frozen blocks. To evaluate the phage distribution in each tissue by immunohistochemistry, the frozen specimens were cut to 8-μm-thick sections and were collected on coated slides. The slides were washed with cold PBS to remove OCT and were fixed with 4% paraformaldehyde for 10 min at RT. To block endogenous peroxidase activity, the slides were soaked with 3% hydrogen peroxide in methanol for 30 min at RT. The nonspecific antibody binding sites were blocked by immersing the section with 1% BSA in PBS for 30 min at RT. The tissue sections were incubated with mouse anti-M13 monoclonal antibody at 1:250 dilution for 1 hr, followed by adding Super Enhancer reagent (Super SENSITIVE™ Polymer HRP Detection System/DAB, BioGenex) for 20 min and Poly-HRP reagent (BioGenex) for 30 min. After washing, the sections were developed with DAB (3,3′-diaminobenzidine) Chromogen (BioGenex) supplemented with Stable DAB buffer. The reaction was stopped by adding PBS. For nuclei staining, the slides were immersed in hematoxylin for 5 min, and were then mounted with mounting solution to terminate the reaction. The images of sections were taken and analyzed using automated acquisition system (TissueGnostics).

HTB-10 = assay: Cellular ELISA of phage clones; format: binding, human
Protocol: as §2

HCT116 cells [7] = assay: Flow cytometry binding of biotinylated pHCT74 peptide; set-up: species or system human
Protocol: We propose the use of biotinylated pHCT74 peptide and a chemical cross-linker, DTSSP, to identify the unknown target protein on the plasma membrane of HCT116 cells. A biotin molecule was conjugated to the C terminus of synthetic pHCT74 peptide. The binding characteristics of biotinylated pHCT74 peptide to HCT116 cells were evaluated by flow cytometry for analyzing the concentration dependency of the binding (FIG. 4B). […] The membrane proteins of HCT116 cells were bound with biotin-pHCT74 peptide, cross-linked by DTSSP; followed by SDS-PAGE separation and LC/MS/MS analysis. A sharp bands was detected by silver staining (FIG. 4C), and subsequently analyzed by LC/MS/MS after tryptic digestion. Twelve tryptic peptides were identified as alpha-enolase (ENO1) fragments by search algorithms based on MASCOT software. Coverage of the identified peptides was 57% of the alpha-enolase sequence and the probability score was 424 (FIG. 4D).

Molecule: CCC1=C[C@@H]2CN(C1)Cc1c([nH]c3ccccc13)[C@@](C(=O)OC)(c1cc3c(cc1OC)N(C)[C@H]1[C@@](O)(C(=O)OC)[C@H](OC(C)=O)[C@]4(CC)C=CCN5CC[C@]31[C@@H]54)C2 [Vinorelbine, vinorelbine]
- cytotoxicity profile (colorectal cancer): significantly better cytotoxicity profiles

Molecule: RLNLDIIAVTSV (HCT-63) [pHCT63]
- inhibition of phage recovery from tumor tissue by cognate peptide (HCT116 xenografts [1]): markedly inhibited the recovery of phage particles from tumor tissue

Molecule: RLNLDIIAVTSV [HCT63]
- binding by cellular ELISA (HUVAC): high binding specificity
- binding by cellular ELISA (A498): high binding specificity
- binding by cellular ELISA (MIA Paca-2): high binding specificity
- binding by cellular ELISA (U2OS): high binding specificity
- binding by cellular ELISA (CL1-5): high binding specificity
- binding by cellular ELISA (H460): high binding specificity
- binding by cellular ELISA (Mahlavu): high binding specificity
- binding by cellular ELISA (MDA-MB-231): high binding specificity
- binding by cellular ELISA (SAS): high binding specificity
- binding by cellular ELISA (PC-3): high binding specificity
- binding by cellular ELISA (1112SK): high binding specificity
- binding by cellular ELISA (H184): high binding specificity
- binding by cellular ELISA (SKOV3): high binding specificity
- phage accumulation in tumor mass vs normal organs (phage titer) (HCT116 xenografts [2]): significantly accumulated in the tumor mass
- binding by cellular ELISA (HCT116 cells [3]): high binding specificity
- binding activity to PBMC (normal cells) by FACS [4]: not to normal cells
- binding by cellular ELISA (B16-F10): high binding specificity
- binding activity by FACS (HT29): reacted strongly
- cell surface-binding activity by flow cytometry (HCT116 cells [5]): reacted strongly
- binding activity by FACS (LS174T): reacted strongly
- binding activity by FACS (SW620): reacted strongly
- binding activity by FACS (COLO205): moderately
- phage localization by immunostaining of tissue sections (HCT116 xenografts [6]): selectively localized in tumor tissues
- phage localization by immunostaining of tissue sections (HCT116 xenografts [6]; listed as HCT-63): strong accumulated in the tumor

Molecule: SSMDIVLRAPLM (HCT-74) [pHCT74]
- inhibition of phage recovery from tumor tissue by cognate peptide (HCT116 xenografts [1]): markedly inhibited the recovery of phage particles from tumor tissue

Molecule: TSVSIVSTVLTP (HCT-69) [pHCT69]
- inhibition of phage recovery from tumor tissue by cognate peptide (HCT116 xenografts [1]): markedly inhibited the recovery of phage particles from tumor tissue

Molecule: TSVSIVSTVLTP [HCT69]
- binding by cellular ELISA (HUVAC): highly specific binding
- binding by cellular ELISA (A498): highly specific binding
- binding by cellular ELISA (MIA Paca-2): highly specific binding
- binding by cellular ELISA (U2OS): highly specific binding
- binding by cellular ELISA (CL1-5): moderate binding
- binding by cellular ELISA (H460): highly specific binding
- binding by cellular ELISA (Mahlavu): highly specific binding
- binding by cellular ELISA (MDA-MB-231): highly specific binding
- binding by cellular ELISA (SAS): highly specific binding
- binding by cellular ELISA (PC-3): highly specific binding
- binding by cellular ELISA (HTB-10): moderate binding
- binding by cellular ELISA (1112SK): highly specific binding
- binding by cellular ELISA (H184): highly specific binding
- binding by cellular ELISA (SKOV3): highly specific binding
- phage accumulation in tumor mass vs normal organs (phage titer) (HCT116 xenografts [2]): significantly accumulated in the tumor mass
- binding by cellular ELISA (HCT116 cells [3]): highly specific binding
- binding activity to PBMC (normal cells) by FACS [4]: not to normal cells
- binding by cellular ELISA (B16-F10): highly specific binding
- binding activity by FACS (HT29): high binding affinity
- cell surface-binding activity by flow cytometry (HCT116 cells [5]): high binding affinity
- binding activity by FACS (LS174T): moderate affinity
- binding activity by FACS (SW620): high binding affinity
- binding activity by FACS (COLO205): weak affinity
- phage localization by immunostaining of tissue sections (HCT116 xenografts [6]): selectively localized in tumor tissues
- phage localization by immunostaining of tissue sections (HCT116 xenografts [6]; listed as HCT-69): strong accumulated in the tumor

Molecule: biotinylated pHCT74 peptide: synthetic pHCT74 peptide with a biotin molecule conjugated to the C terminus (SSMDIVLRAPLMGGG-biotin)
- cell binding activity after C-terminal biotin addition (HCT116 cells [7]): did not affect its cell binding activity
